{
  "source": "patent US11530219B2",
  "about": "“Ligands to cereblon (CRBN)” (DANA-FARBER CANCER INSTITUTE, INC., priority 2018, dated 2022)",
  "note": "Entries after “also recorded” stand apart in the source; their conditions may differ.",
  "data": [
    {"molecular_target": "CRBN (Homo sapiens (Human), UniProt Q96SW2)", "sequence (Q96SW2 whole entry)": "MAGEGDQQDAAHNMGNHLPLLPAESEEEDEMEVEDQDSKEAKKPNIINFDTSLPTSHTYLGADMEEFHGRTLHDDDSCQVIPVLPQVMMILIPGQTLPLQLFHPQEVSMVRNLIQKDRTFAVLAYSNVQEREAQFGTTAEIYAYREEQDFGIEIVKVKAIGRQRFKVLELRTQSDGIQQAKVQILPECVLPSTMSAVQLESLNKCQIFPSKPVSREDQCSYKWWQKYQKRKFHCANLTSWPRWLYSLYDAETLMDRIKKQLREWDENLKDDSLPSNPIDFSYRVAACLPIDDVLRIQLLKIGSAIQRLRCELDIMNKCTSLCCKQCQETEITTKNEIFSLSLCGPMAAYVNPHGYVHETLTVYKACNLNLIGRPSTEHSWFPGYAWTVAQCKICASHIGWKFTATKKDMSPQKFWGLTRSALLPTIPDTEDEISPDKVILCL", "assay": "Cellular CRBN dBET6 displacement assay (BRD4BD2-GFP/mCherry reporter cells)", "assay_type": "cell-based", "settings": "Flip-In 293 cells stably expressing BRD4BD2-GFP, 100 nM dBET6, 5 hours", "protocol": "(§1) BRD4BD2 were subcloned into mammalian pcDNA5/FRT Vector (Ampicillin and Hygromycin B resistant) modified to contain MCS-eGFP-P2A-mCherry. […] Following a 2-3 passage cycle, FACS (FACSAria™ II, BD) was used to enrich for cells expressing eGFP and mCherry.\n(§2) Signal from minimal 3000 events per well was acquired and the eGFP and mCherry florescence monitored. Data was analyzed using FlowJo® (FlowJo®, LCC). […] The eGFP protein abundance relative to mCherry was then quantified as a ten-fold amplified ratio for each individual cell using the formula: 10×eGFP/mCherry. The median of the ratio was then calculated per set, normalized to the median of the DMSO ratio.\n(§3) This assay provided a readout of cellular CRBN binding impacted by the permeability of the molecule tested.", "values": [
      {"compound": "COc1cc(F)ccc1-c1nccc(NCC(=O)Nc2cccc3c2CN(C2CCC(=O)NC2=O)C3=O)n1", "note": "(centres unmarked) [Compound 34, N-(2-(2,6-dioxopiperidin-3-yl)-1-oxoisoindolin-4-yl)-2-((2-(4-fluoro-2-methoxyphenyl)pyrimidin-4-yl)amino)acetamide]", "Cellular CRBN-BRD4 dBET6 displacement EC50": "inactive; also recorded: Not binding"},
      {"compound": "O=C1CCC(N2Cc3c(Nc4ccnc(NCCCN5CCCC5=O)n4)cccc3C2=O)C(=O)N1", "note": "(centres unmarked) [Compound 22, 3-(1-oxo-4-((2-((3-(2-oxopyrrolidin-1-yl)propyl)amino)pyrimidin-4-yl)amino)isoindolin-2-yl)piperidine-2,6-dione]", "Cellular CRBN-BRD4 dBET6 displacement EC50": "inactive; also recorded: Not binding"},
      {"compound": "NS(=O)(=O)c1ccc(Nc2nccc(Nc3cccc4c3CN(C3CCC(=O)NC3=O)C4=O)n2)cc1", "note": "(centres unmarked) [Compound 40, 4-((4-((2-(2,6-dioxopiperidin-3-yl)-1-oxoisoindolin-4-yl)amino)pyrimidin-2-yl)amino)benzenesulfonamide]", "Cellular CRBN-BRD4 dBET6 displacement EC50": "inactive; also recorded: Not binding"}
    ]},
    {"molecular_target": "CRBN (Homo sapiens (Human), UniProt Q96SW2)", "assay": "Cellular CRBN dBET6 displacement assay (BRD4BD2-GFP/mCherry reporter cells)", "assay_type": "cell-based", "settings": "Flip-In 293 cells stably expressing BRD4BD2-GFP, 100 nM dBET6, 5 hours; read-out: Cellular CRBN-BRD4 dBET6 displacement EC50", "protocol": "as §1, §2, §3", "units": {"EC50": "µM"}, "values": [
      {"compound": "CC(C)n1cnc2c(Nc3cccc4c3CN(C3CCC(=O)NC3=O)C4=O)nc(Nc3ccc4c(c3)CCC4)nc21", "note": "(centres unmarked) [Compound 53, 3-(4-((2-((2,3-dihydro-1H-inden-5-yl)amino)-9-isopropyl-9H-purin-6-yl)amino)-1-oxoisoindolin-2-yl)piperidine-2,6-dione]", "EC50": 0.665},
      {"compound": "O=C1CCC(N2Cc3c(Nc4ccnc(NC56CC7CC(CC(C7)C5)C6)n4)cccc3C2=O)C(=O)N1", "note": "(centres unmarked) [Compound 44, 3-(4-((2-(((3s,5s,7s)-adamantan-1-yl)amino)pyrimidin-4-yl)amino)-1-oxoisoindolin-2-yl)piperidine-2,6-dione]", "EC50": 0.913},
      {"compound": "O=C1CCC(N2Cc3c(Nc4nc(-c5ccc(-c6ccccc6)cc5)nc5[nH]cnc45)cccc3C2=O)C(=O)N1", "note": "(centres unmarked) [Compound 48, 3-(4-((2-([1,1′-biphenyl]-4-yl)-9H-purin-6-yl)amino)-1-oxoisoindolin-2-yl)piperidine-2,6-dione]", "EC50": 12.4},
      {"compound": "CC(C)C(CO)Nc1nccc(Nc2cccc3c2CN(C2CCC(=O)NC2=O)C3=O)n1", "note": "[Compound 37, 3-(4-((2-(((R)-1-hydroxy-3-methylbutan-2-yl)amino)pyrimidin-4-yl)amino)-1-oxoisoindolin-2-yl)piperidine-2,6-dione]", "EC50": 9.74},
      {"compound": "O=C1CCC(N2Cc3c(Nc4ccnc(Nc5ccc6c(c5)CCN6)n4)cccc3C2=O)C(=O)N1", "note": "(centres unmarked) [Compound 43, 3-(4-((2-(indolin-5-ylamino)pyrimidin-4-yl)amino)-1-oxoisoindolin-2-yl)piperidine-2,6-dione]", "EC50": 25.3},
      {"compound": "COc1ccc(-c2nccc(Nc3cccc4c3CN(C3CCC(=O)NC3=O)C4=O)n2)c(OC)c1", "note": "(centres unmarked) [Compound 35, 3-(4-((2-(2,4-dimethoxyphenyl)pyrimidin-4-yl)amino)-1-oxoisoindolin-2-yl)piperidine-2,6-dione]", "EC50": 1.86},
      {"compound": "O=C1CCC(N2Cc3c(Nc4ccnc(Nc5ccc6ccccc6c5)n4)cccc3C2=O)C(=O)N1", "note": "(centres unmarked) [Compound 45, 3-(4-((2-(naphthalen-2-ylamino)pyrimidin-4-yl)amino)-1-oxoisoindolin-2-yl)piperidine-2,6-dione]", "EC50": 2.06},
      {"compound": "COc1cc(OC)cc(-c2nc(Nc3cccc4c3CN(C3CCC(=O)NC3=O)C4=O)c3nc[nH]c3n2)c1", "note": "(centres unmarked) [Compound 51, 3-(4-((2-(3,5-dimethoxyphenyl)-9H-purin-6-yl)amino)-1-oxoisoindolin-2-yl)piperidine-2,6-dione]", "EC50": 6.83},
      {"compound": "O=C1CCC(N2Cc3c(Nc4ccnc(Nc5ccc6c(c5)CCC6)n4)cccc3C2=O)C(=O)N1", "note": "(centres unmarked) [Compound 24, 3-(4-((2-((2,3-dihydro-1H-inden-5-yl)amino)pyrimidin-4-yl)amino)-1-oxoisoindolin-2-yl)piperidine-2,6-dione]", "EC50": 1.35},
      {"compound": "CN(c1ccccc1)c1nccc(Nc2cccc3c2CN(C2CCC(=O)NC2=O)C3=O)n1", "note": "(centres unmarked) [Compound 27, 3-(4-((2-(methyl(phenyl)amino)pyrimidin-4-yl)amino)-1-oxoisoindolin-2-yl)piperidine-2,6-dione]", "EC50": 1.25},
      {"compound": "O=C1CCC(N2Cc3c(Nc4ccnc(-c5ccc(-c6ccccc6)cc5)n4)cccc3C2=O)C(=O)N1", "note": "(centres unmarked) [Compound 31, 3-(4-((2-([1,1′-biphenyl]-4-yl)pyrimidin-4-yl)amino)-1-oxoisoindolin-2-yl)piperidine-2,6-dione]", "EC50": 8.66},
      {"compound": "O=C1CCC(N2Cc3c(Nc4ccnc(Nc5ccc6c(c5)OCCO6)n4)cccc3C2=O)C(=O)N1", "note": "(centres unmarked) [Compound 19, 3-(4-((2-((2,3-dihydrobenzo[b][1,4]dioxin-6-yl)amino)pyrimidin-4-yl)amino)-1-oxoisoindolin-2-yl)piperidine-2,6-dione]", "EC50": 3.63},
      {"compound": "O=C1CCC(N2Cc3c(Nc4ccnc(Nc5ccccc5F)n4)cccc3C2=O)C(=O)N1", "note": "(centres unmarked) [Compound 21, 3-(4-((2-((2-fluorophenyl)amino)pyrimidin-4-yl)amino)-1-oxoisoindolin-2-yl)piperidine-2,6-dione]", "EC50": 2.31},
      {"compound": "Cc1cc(C)c(Nc2nccc(Nc3cccc4c3CN(C3CCC(=O)NC3=O)C4=O)n2)c(C)c1", "note": "(centres unmarked) [Compound 28, 3-(4-((2-(mesitylamino)pyrimidin-4-yl)amino)-1-oxoisoindolin-2-yl)piperidine-2,6-dione]", "EC50": 3.25},
      {"compound": "O=C1CCC(N2Cc3c(Nc4ccnc(N5CCC[C@@H]5CO)n4)cccc3C2=O)C(=O)N1", "note": "(stereo partly drawn) [Compound 30, 3-(4-((2-((R)-2-(hydroxymethyl)pyrrolidin-1-yl)pyrimidin-4-yl)amino)-1-oxoisoindolin-2-yl)piperidine-2,6-dione]", "EC50": 8.15},
      {"compound": "COc1cc(F)ccc1-c1nccc(Nc2cccc3c2CN(C2CCC(=O)NC2=O)C3=O)n1", "note": "(centres unmarked) [Compound 33, 3-(4-((2-(4-fluoro-2-methoxyphenyl)pyrimidin-4-yl)amino)-1-oxoisoindolin-2-yl)piperidine-2,6-dione]", "EC50": 2.59},
      {"compound": "COc1ccccc1-c1nc(Nc2cccc3c2CN(C2CCC(=O)NC2=O)C3=O)c2nc[nH]c2n1", "note": "(centres unmarked) [Compound 47, 3-(4-((2-(2-methoxyphenyl)-9H-purin-6-yl)amino)-1-oxoisoindolin-2-yl)piperidine-2,6-dione]", "EC50": 27.1},
      {"compound": "O=C1CCC(N2Cc3c(Nc4nc(-c5ccc(F)cc5)nc5[nH]cnc45)cccc3C2=O)C(=O)N1", "note": "(centres unmarked) [Compound 50, 3-(4-((2-(4-fluorophenyl)-9H-purin-6-yl)amino)-1-oxoisoindolin-2-yl)piperidine-2,6-dione]", "EC50": 8.29},
      {"compound": "COc1ccc(Nc2nccc(Nc3cccc4c3CN(C3CCC(=O)NC3=O)C4=O)n2)cc1", "note": "(centres unmarked) [Compound 18, 3-(4-((2-((4-methoxyphenyl)amino)pyrimidin-4-yl)amino)-1-oxoisoindolin-2-yl)piperidine-2,6-dione]", "EC50": 2.69},
      {"compound": "O=C1CCC(N2Cc3c(Nc4ccnc(Nc5ccc6c(c5)-c5ccccc5C6)n4)cccc3C2=O)C(=O)N1", "note": "(centres unmarked) [Compound 46, 3-(4-((2-((9H-fluoren-3-yl)amino)pyrimidin-4-yl)amino)-1-oxoisoindolin-2-yl)piperidine-2,6-dione]", "EC50": 1.13},
      {"compound": "O=C1CCC(N2Cc3c(Nc4ccnc(N5CCC[C@H]5CO)n4)cccc3C2=O)C(=O)N1", "note": "(stereo partly drawn) [Compound 29, 3-(4-((2-((S)-2-(hydroxymethyl)pyrrolidin-1-yl)pyrimidin-4-yl)amino)-1-oxoisoindolin-2-yl)piperidine-2,6-dione]", "EC50": 8.14},
      {"compound": "O=C1CCC(N2Cc3c(Nc4ccnc(-c5cc6ccccc6o5)n4)cccc3C2=O)C(=O)N1", "note": "(centres unmarked) [Compound 36, 3-(4-((2-(benzofuran-2-yl)pyrimidin-4-yl)amino)-1-oxoisoindolin-2-yl)piperidine-2,6-dione]", "EC50": 2.24},
      {"compound": "CC(=O)c1ccc(-c2nccc(Nc3cccc4c3CN(C3CCC(=O)NC3=O)C4=O)n2)cc1", "note": "(centres unmarked) [Compound 20, 3-(4-((2-(4-acetylphenyl)pyrimidin-4-yl)amino)-1-oxoisoindolin-2-yl)piperidine-2,6-dione]", "EC50": 1.26},
      {"compound": "COc1cc(F)ccc1-c1nc(Nc2cccc3c2CN(C2CCC(=O)NC2=O)C3=O)c2nc[nH]c2n1", "note": "(centres unmarked) [Compound 49, 3-(4-((2-(4-fluoro-2-methoxyphenyl)-9H-purin-6-yl)amino)-1-oxoisoindolin-2-yl)piperidine-2,6-dione]", "EC50": 12.4},
      {"compound": "COc1ccccc1Nc1nccc(Nc2cccc3c2CN(C2CCC(=O)NC2=O)C3=O)n1", "note": "(centres unmarked) [Compound 38, 3-(4-((2-((2-methoxyphenyl)amino)pyrimidin-4-yl)amino)-1-oxoisoindolin-2-yl)piperidine-2,6-dione]", "EC50": 2.6}
    ]},
    {"molecular_target": "CRBN (Homo sapiens (Human), UniProt Q96SW2)", "assay": "Cellular CRBN dBET6 displacement assay (BRD4BD2-GFP/mCherry reporter cells)", "assay_type": "cell-based", "settings": "unit printed as 'M' in the text (Table 1 gives μM); 100 nM dBET6, 5 hours; read-out: Cellular CRBN engagement EC50", "protocol": "as §1, §2, §3", "units": {"EC50": "µM"}, "values": [
      {"compound": "CCN(Cc1ccccc1)c1nccc(Nc2cccc3c2CN(C2CCC(=O)NC2=O)C3=O)n1", "note": "(centres unmarked) [Compound 26, 3-(4-((2-(benzyl(ethyl)amino)pyrimidin-4-yl)amino)-1-oxoisoindolin-2-yl)piperidine-2,6-dione]", "EC50": 0.67},
      {"compound": "O=C1CCC(N2Cc3c(Nc4ccnc(N5CCN(c6cccc(C(F)(F)F)c6)CC5)n4)cccc3C2=O)C(=O)N1", "note": "(centres unmarked) [Compound 23, 3-(1-oxo-4-((2-(4-(3-(trifluoromethyl)phenyl)piperazin-1-yl)pyrimidin-4-yl)amino)isoindolin-2-yl)piperidine-2,6-dione]", "EC50": 0.66},
      {"compound": "O=C1CCC(N2Cc3c(Nc4ccnc(Nc5ccc6c(c5)CCCC6)n4)cccc3C2=O)C(=O)N1", "note": "(centres unmarked) [Compound 52, 3-(1-oxo-4-((2-((5,6,7,8-tetrahydronaphthalen-2-yl)amino)pyrimidin-4-yl)amino)isoindolin-2-yl)piperidine-2,6-dione]", "EC50": 0.46},
      {"compound": "O=C1CCC(N2Cc3c(Nc4ccnc(-c5ccc(F)cc5)n4)cccc3C2=O)C(=O)N1", "note": "(centres unmarked) [Compound 39, 3-(4-((2-(4-fluorophenyl)pyrimidin-4-yl)amino)-1-oxoisoindolin-2-yl)piperidine-2,6-dione]", "EC50": 0.742}
    ]}
  ]
}
